Results taken from patent publication US10005767B2, “Compositions and methods for inhibition of the JAK pathway” (Rigel Pharmaceuticals, Inc., priority 2009, dated 2018).

System: human primary T-cells, IL-2 stimulated proliferation (JAK-1 and JAK-3 dependent; reported as JAK3 activity)
Experiment: Human primary T-cell proliferation stimulated by IL-2 (Example 3)
Type: cell-based
Details: Homo sapiens, T-cell, tested under conditions described in Example 3 (IL-2 stimulated human primary T-cell proliferation); read-out: ability to inhibit JAK3 activity, IC50 range (Table V)
How it was run: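 Peripheral-blood human T-cells pre-activated via TCR/CD28, IL-2-starved overnight, then cultured 72 h at 37 °C with compound in Yssel's medium containing IL-2 (80 U/mL in cell suspension). Proliferation read as viable-cell ATP by CellTiter-Glo luminescence; reduction versus control taken as JAK pathway inhibition.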

| SMILES | IC50 [nM] |
| --- | --- |
| Cc1cccc(Nc2ncc(C)c(Nc3ccc4oc(=O)[nH]c4c3)n2)c1 [Compound I-403, 5-(5-Methyl-2-m-tolylamino-pyrimidin-4-ylamino)-3H-benzooxazol-2-one] | < 500 |
| Cc1cnc(Nc2ccc(OCCCN(C)C)c(C(F)(F)F)c2)nc1Nc1ccc2oc(=O)[nH]c2c1 [Compound I-404, 5-{2-[4-(3-Dimethylamino-propoxy)-3-trifluoromethyl-phenylamino]-5-methyl-pyrimidin-4-ylamino}-3H-benzooxazol-2-one] | < 500 |

Same assay, conditions: tested under conditions described in Example 3 (IL-2 stimulated human primary T-cell proliferation); read-out: ability to inhibit JAK3 activity, IC50 range (Table V)

| SMILES | IC50 [nM] |
| --- | --- |
| COc1ccc(Nc2ncc(C)c(Nc3ccc4oc(=O)[nH]c4c3)n2)cc1C#N [Compound I-373, N2-(3-cyano-4-methoxy)phenyl-5-methyl-N4-(2-oxo-2,3-dihydro-1,3-benzoxazol-5-yl)-2,4-pyrimidinediamine] | < 500 |
| Cc1cnc(Nc2cc(C)c(F)c(C)c2)nc1Nc1ccc2oc(=O)[nH]c2c1 [Compound I-374, N2-(3,5-dimethyl-4-fluoro)phenyl-5-methyl-N4-(2-oxo-2,3-dihydro-1,3-benzoxazol-5-yl)-2,4-pyrimidinediamine] | < 500 |
| Cc1cnc(Nc2ccc(OC(F)(F)F)c(F)c2)nc1Nc1ccc2oc(=O)[nH]c2c1 [Compound I-376, N2-(3-fluoro-4-trifluoromethoxy)phenyl-5-methyl-N4-(2-oxo-2,3-dihydro-1,3-benzoxazol-5-yl)-2,4-pyrimidinediamine] | < 500 |
| Cc1cnc(Nc2cc(Cl)cc(OC(F)(F)F)c2)nc1Nc1ccc2oc(=O)[nH]c2c1 [Compound I-378, N2-(3-chloro-5-trifluoromethoxy)phenyl-5-methyl-N4-(2-oxo-2,3-dihydro-1,3-benzoxazol-5-yl)-2,4-pyrimidinediamine] | < 500 |
| Cc1cc(Nc2ncc(C)c(Nc3ccc4oc(=O)[nH]c4c3)n2)cc(OC(F)(F)F)c1 [Compound I-379, 5-methyl-N2-(3-methyl-5-trifluoromethoxy)phenyl-N4-(2-oxo-2,3-dihydro-1,3-benzoxazol-5-yl)-2,4-pyrimidinediamine] | < 500 |
| COc1cc(Nc2ncc(C)c(Nc3ccc4oc(=O)[nH]c4c3)n2)ccc1C#N [Compound I-380, N2-(4-cyano-3-methoxy)phenyl-5-methyl-N4-(2-oxo-2,3-dihydro-1,3-benzoxazol-5-yl)-2,4-pyrimidinediamine] | < 500 |
| COc1c(F)cc(Nc2ncc(C)c(Nc3ccc4oc(=O)[nH]c4c3)n2)cc1F [Compound I-381, N2-(3,5-difluoro-4-methoxy)phenyl-5-methyl-N4-(2-oxo-2,3-dihydro-1,3-benzoxazol-5-yl)-2,4-pyrimidinediamine] | < 500 |
| Cc1cnc(Nc2ccc(CN3CCOCC3)cc2)nc1Nc1ccc2oc(=O)[nH]c2c1 [Compound I-382, 5-methyl-N2-(4-morpholinomethyl)phenyl-N4-(2-oxo-2,3-dihydro-1,3-benzoxazol-5-yl)-2,4-pyrimidinediamine] | < 500 |
| CCc1cc(Nc2ncc(C)c(Nc3ccc4oc(=O)[nH]c4c3)n2)cc(C#N)c1Cl [Compound I-383, N2-(4-chloro-3-cyano-5-ethyl)phenyl-5-methyl-N4-(2-oxo-2,3-dihydro-1,3-benzoxazol-5-yl)-2,4-pyrimidinediamine] | 500 to 5000 |
| COCCOc1cc(Nc2ncc(C)c(Nc3ccc4oc(=O)[nH]c4c3)n2)cc(C(F)(F)F)c1 [Compound I-384, N2-[3-(2-methoxy)ethoxy-5-trifluoromethyl]phenyl-5-methyl-N4-(2-oxo-2,3-dihydro-1,3-benzoxazol-5-yl)-2,4-pyrimidinediamine] | < 500 |
| Cc1cnc(Nc2cc(C)c(OC(F)F)c(C)c2)nc1Nc1ccc2oc(=O)[nH]c2c1 [Compound I-385, N2-(4-difluoromethoxy-3,5-dimethyl)phenyl-5-methyl-N4-(2-oxo-2,3-dihydro-1,3-benzoxazol-5-yl)-2,4-pyrimidinediamine] | < 500 |
| Cc1cnc(Nc2ccc(F)c(OC(C)(C)C(N)=O)c2)nc1Nc1ccc2oc(=O)[nH]c2c1 [Compound I-386, N2-[3-(1-aminocarbonyl-1-methyl)ethoxy-4-fluoro]phenyl-5-methyl-N4-(2-oxo-2,3-dihydro-1,3-benzoxazol-5-yl)-2,4-pyrimidinediamine] | < 500 |
| Cc1cc(Nc2ncc(C)c(Nc3ccc4oc(=O)[nH]c4c3)n2)ccc1OC(F)F [Compound I-387, N2-(4-difluoromethoxy-3-methyl)phenyl-5-methyl-N4-(2-oxo-2,3-dihydro-1,3-benzoxazol-5-yl)-2,4-pyrimidinediamine] | < 500 |
| Cc1cnc(Nc2cc(F)c(OC(F)F)c(F)c2)nc1Nc1ccc2oc(=O)[nH]c2c1 [Compound I-388, N2-(3,5-difluoro-4-difluoromethoxy)phenyl-5-methyl-N4-(2-oxo-2,3-dihydro-1,3-benzoxazol-5-yl)-2,4-pyrimidinediamine] | < 500 |
| Cc1cnc(Nc2cc(C)c(OC(C)(C)C(N)=O)c(C)c2)nc1Nc1ccc2oc(=O)[nH]c2c1 [Compound I-389, N2-[4-(1-aminocarbonyl-1-methyl)ethoxy-3,5-dimethyl]phenyl-5-methyl-N4-(2-oxo-2,3-dihydro-1,3-benzoxazol-5-yl)-2,4-pyrimidinediamine] | < 500 |
| Cc1ccc(Nc2ncc(C)c(Nc3ccc4oc(=O)[nH]c4c3)n2)cc1OC(F)F [Compound I-390, N2-(3-difluoromethoxy-4-methyl)phenyl-5-methyl-N4-(2-oxo-2,3-dihydro-1,3-benzoxazol-5-yl)-2,4-pyrimidinediamine] | < 500 |
| Cc1cc(Nc2ncc(C)c(Nc3ccc4oc(=O)[nH]c4c3)n2)ccc1OC(C)(C)C(N)=O [Compound I-391, N2-[4-(1-aminocarbonyl-1-methyl)ethoxy-3-methyl]phenyl-5-methyl-N4-(2-oxo-2,3-dihydro-1,3-benzoxazol-5-yl)-2,4-pyrimidinediamine] | < 500 |
| Cc1ccc(Nc2ncc(C)c(Nc3ccc4oc(=O)[nH]c4c3)n2)cc1OC(C)(C)C(N)=O [Compound I-392, N2-[3-(1-aminocarbonyl-1-methyl)ethoxy-4-methyl]phenyl-5-methyl-N4-(2-oxo-2,3-dihydro-1,3-benzoxazol-5-yl)-2,4-pyrimidinediamine] | < 500 |
| Cc1cnc(Nc2cc(C)c(Cl)c(C)c2)nc1Nc1ccc2oc(=O)[nH]c2c1 [Compound I-394, N2-(4-chloro-3,5-dimethyl)phenyl-5-methyl-N4-(2-oxo-2,3-dihydro-1,3-benzoxazol-5-yl)-2,4-pyrimidinediamine] | < 500 |
| Cc1cnc(Nc2cc(F)c(OC(C)(C)C(N)=O)c(F)c2)nc1Nc1ccc2oc(=O)[nH]c2c1 [Compound I-395, N2-[4-(1-aminocarbonyl-1-methyl)ethoxy-3,5-difluoro]phenyl-5-methyl-N4-(2-oxo-2,3-dihydro-1,3-benzoxazol-5-yl)-2,4-pyrimidinediamine] | < 500 |
| COC(c1cccc(Nc2ncc(C)c(Nc3ccc4oc(=O)[nH]c4c3)n2)c1)C(F)(F)F (centres unmarked) [Compound I-396, N2-[3-(1-methoxy-2,2,2-trifluoroethyl)]phenyl-5-methyl-N4-(2-oxo-2,3-dihydro-1,3-benzoxazol-5-yl)-2,4-pyrimidinediamine] | < 500 |
| Cc1ccc(Nc2ncc(C)c(Nc3ccc4oc(=O)[nH]c4c3)n2)cc1OC(C)(C)C#N [Compound I-397, N2-[3-(1-cyano-1-methyl)ethoxy-4-methyl]phenyl-5-methyl-N4-(2-oxo-2,3-dihydro-1,3-benzoxazol-5-yl)-2,4-pyrimidinediamine] | < 500 |
| Cc1cnc(Nc2ccc(F)c(F)c2)nc1Nc1ccc2oc(=O)[nH]c2c1 [Compound I-398, N2-(3,4-difluoro)phenyl-5-methyl-N4-(2-oxo-2,3-dihydro-1,3-benzoxazol-5-yl)-2,4-pyrimidinediamine] | < 500 |
| Cc1cnc(Nc2ccc(F)c(Cl)c2)nc1Nc1ccc2oc(=O)[nH]c2c1 [Compound I-399, N2-(3-chloro-4-fluoro)phenyl-5-methyl-N4-(2-oxo-2,3-dihydro-1,3-benzoxazol-5-yl)-2,4-pyrimidinediamine] | < 500 |
| Cc1cnc(Nc2ccc(Cl)c(F)c2)nc1Nc1ccc2oc(=O)[nH]c2c1 [Compound I-400, N2-(4-chloro-3-fluoro)phenyl-5-methyl-N4-(2-oxo-2,3-dihydro-1,3-benzoxazol-5-yl)-2,4-pyrimidinediamine] | < 500 |
| Cc1cnc(Nc2cc(F)cc(OC(F)F)c2)nc1Nc1ccc2oc(=O)[nH]c2c1 [Compound I-401, N2-(3-difluoromethoxy-5-fluoro)phenyl-5-methyl-N4-(2-oxo-2,3-dihydro-1,3-benzoxazol-5-yl)-2,4-pyrimidinediamine] | < 500 |
| Cc1cnc(Nc2cc(F)cc(OC(C)(C)C(N)=O)c2)nc1Nc1ccc2oc(=O)[nH]c2c1 [Compound I-402, N2-[3-(1-aminocarbonyl-1-methyl)ethoxy-5-fluoro]phenyl-5-methyl-N4-(2-oxo-2,3-dihydro-1,3-benzoxazol-5-yl)-2,4-pyrimidinediamine] | < 500 |
| Cc1cnc(Nc2cc(C)c(C)c(C)c2)nc1Nc1ccc2oc(=O)n(COP(=O)(OC(C)(C)C)OC(C)(C)C)c2c1 [Compound I-405, N4-{3-[bis(1,1-dimethylethoxy)]phosphinyloxymethyl-2-oxo-2,3-dihydro-1,3-benzoxazol-5-yl}-N2-(3,4,5-trimethyl)phenyl-5-methyl-2,4-pyrimidinediamine] | 5000 to 10000 |
| Cc1cnc(Nc2cc(C)c(C)c(C)c2)nc1Nc1ccc2oc(=O)n(COP(=O)(O)O)c2c1 [Compound I-406, 5-methyl-N4-[3-(phosphonooxy)methyl-2-oxo-2,3-dihydro-1,3-benzoxazol-5-yl]-N2-(3,4,5-trimethyl)phenyl-2,4-pyrimidinediamine] | 500 to 5000 |
| Cc1cnc(Nc2cc(F)c(F)c(F)c2)nc1Nc1ccc2oc(=O)[nH]c2c1 [Compound I-408, 5-methyl-N4-(2-oxo-2,3-dihydro-1,3-benzoxazol-5-yl)-N2-(3,4,5-trifluoro)phenyl-2,4-pyrimidinediamine] | < 500 |
